Series [1] in a line: Whole body NIR imaging (IVIS Kinetic) after intravenous injection. It is filed as in vivo, Female FVB mice. Here is the method: Mice were shaved under isoflurane (1-2%, v/v) anesthesia and underwent baseline scans using an IVIS Kinetic® in vivo imaging system (Caliper Life Sciences, Hopkinton, Mass., USA). Two hundred μl of 8 mg/kg Phospholipon® 50 ICG liposomes or the free compound in 2 mM sucrose buffer (phosphate buffer pH 7, with 9.3% w/w sucrose) were injected into the tail vein and the mice were repetitively scanned over a time period of up to 120 min.
Analysis of in vivo ICG pharmacokinetics (PK), including region of interest (ROI) placement (Living Image; PerkinElmer, Waltham, Mass., USA; (Schneider et al., 2012)) and calculation of the area under the concentration-time curve (AUC) from the time of injection to the time of the last measurement (Phoenix WinNonlin; Certara; St. Louis, Mo., USA), was conducted as previously described (Portnoy et al., 2012). Partial areas were calculated for the AUC between the time of ICG injection (0 min) and 60 or 120 min after injection (AUC0-60 min and AUC0-120 mm, respectively). Data are presented as means±SD. The non-parametric Mann-Whitney or Kruskal-Wallis tests, as appropriate, were used to determine the statistical significance of difference (p<0.05) between experimental groups (InStat; GraphPad, La Jolla, Calif., USA).

The nature of series [2]: Fluorescence spectra and relative quantum yield of ICG-adsorbed liposomes vs ICG in aqueous solution. It is filed as physicochemical.
Procedure: The fluorescence spectra of the ICG-adsorbed liposomes prepared were evaluated in comparison to those of ICG in aqueous solution.
The relative quantum yield was calculated according to the following equation (Fery-Forgues and Lavabre, 1999):
where φ is the quantum yield, F is the area under the emission peak (expressed in number of photons), A is absorbance at the excitation wavelength, and n is the refractive index of the solvents. The subscript x denotes the respective values of the sample (liposome-ICG), and s denotes standard (free ICG in buffer).
Series [3] in a line: Imaging of surgically exposed kidneys and ureters after midline laparotomy. It is filed as in vivo, Female FVB mice. Conditions: P<0.01. How it is done: An additional cohort of animals was used for further studies of the accumulation of liposomal ICG in the urinary system. Liposomal or free ICG was injected into the tail vein, and 3 min later, mice were treated with high dose pentobarbital administered intraperitoneally. Overall time of active circulation after the ICG injection was about 10 min. Thereafter, mice were subjected to midline laparotomy with full exposure of the retroperitoneum. The ureters were identified in their origin from the kidneys, and distally clipped or loosely tied for identification. The mice were also hysterectomyzed to ease the urinary bladder identification. Subsequently, the animals were scanned by the Typhoon FLA 9500 biomolecular imager. Each experiment was repeated at least three times.

A short description of series [4]: Stability of ICG absorption at light and at dark over time. The class given is physicochemical. Conditions: aqueous solution or adsorbed to liposomes. How it is done: The red shift is accompanied with quenching of fluorescence, i.e., the larger the red shift the lower the fluorescence intensity. Because the fluorescence intensity of ICG-liposomes was greater than that of unbound ICG molecules (aqueous solution), the quantum yield ratio between the two states in which ICG is present was determined, for a concentration of 1.28×10^−3 mM. ICG is poorly stable in aqueous solutions due to degradation, and therefore, in order to evaluate the stability of the ICG-adsorbed liposomes, the absorption of this fluorescent probe, when dissolved in an aqueous solution or adsorbed to the liposomes, was measured at light and at dark over time.

Series [5] in a line: Ureter imaging with ICG-HPβCD inclusion complex vs free ICG (Typhoon imager). It is filed as in vivo, female FVB mice. Conditions: 8 mg/kg ICG, 10 min post injection. How it is done: 60 mg of ICG (Acros) was solubilized in 12.5 ml of DDW. 2 ml of ICG solution were added to 10 ml of phosphate buffer (pH 7, 2 mM, and sucrose 9.3% w/w). 18.5 mg of HPβCD (Acros) were added to ICG buffered solution and mixed for 10 h at 4° C. […] Mice were sacrificed 10 min post injection and imaged by Typhoon imager (General Electric).

For series [6] the following is noted: literature (Bax 1980; Cherrick 1960); cited from earlier work.

Several values for one entry are separate records, joined by “and”; a condition that tells them apart may be missing. Equal entries are not always repeated.

As to `CC1(C)C(/C=C/C=C/C=C/C=C2\N(CCCCS(=O)(=O)O)c3ccc4ccccc4c3C2(C)C)=[N+](CCCCS(=O)(=O)[O-])c2ccc3ccccc3c21` [free ICG, indocyanine green], the “urinary bladder/feet AUC0-60 min ratio of emission intensity” value in series [1] (8 mg/kg ICG i.v., feet-normalized AUC, 0-60 min) amounted to 2.3±0.5. In series [1] (8 mg/kg ICG i.v., feet-normalized AUC, 0-120 min), the “urinary bladder/feet AUC0-120 min ratio of emission intensity” value is reported as 2.3±0.4. Also, in series [1] (control mice, 8 mg/kg i.v.), the “emission intensity AUC of the urinary bladder relative to that of the feet” value was 2.3 fold. Further, in series [2] (concentrations above 6.4×10^−3 mM), the “ICG emission peak in water, shift” value is “up to 814 nm”. The “ICG emission peak in water” value in series [2] (concentrations less than 6.4×10^−3 mM) was determined as 805 nm. Moreover, the “ureteral emission normalized to renal emission (ureters/kidneys ratio)” value in series [3] was 0.56±0.10 and 0.5. In series [4], the “absorption over time at light and at dark (stability)” value is “decreases over time both in light and in dark”. In series [5], the labelling of ureters result is recorded as “did not” and the renal excretion entry is given as “negligibly excreted in the urine”. In series [6], the “half life in plasma” value is listed as “in the minutes range” and the “renal elimination after systemic administration” value is reported as “negligible”.
